The record followed here is patent US4912116A, “Propiophenone derivatives for treatment of pollakiuria (frequency urination)” (Hokuriku Pharmaceutical Co., Ltd., priority 1986, dated 1990).

Data set [1] deals with micturition reflex (rhythmic bladder contractions). The data set is described as follows: Inhibition of micturition reflex (rhythmic bladder contractions) in anesthetized rats. The conditions noted are these: for Disappearance time (of bladder contractions): i.v., 3 rats, mean ± S.E.; for ED (3 min disappearance of contractions): iv, read-out: ED3 (dose at which rhythmic bladder contractions disappeared in three (3) minutes). The data set is classed as in vivo, male wister rats. The procedure: (§1) statistical analysis: Each data of Experiment 1-6 represents the mean±S.E. statistical analysis of the data was performed using student's t-test.
According to the method described by Morikawa et al. (Folia phamacol. japon.: 88,355 (1986), male wister rats weighing about 300 g (in case of intraduodenal administration, fasted 18-20 hours) were anesthetized with urethane (500 mg/kg, i.p.) and alpha-chloralose (50 mg/kg, i.p.), and fixed on their back.
Then, through a midline incision of the abdomen, the urinary bladder was exposed, provided with a small incision, and a balloon (capacity about 1 ml) was inserted into the bladder dome.
The balloon was connected to a pressure transducer and variations of inside pressure were recorded on a recorder.
Micturition reflex was elicited by elevating balloon pressure 10-20 cm H2 O.
In case of intravenous administration, the drug was administrated through a cannula inserted into the left jugular vein and, in case of intraduodenum administration, the drug was administrated through a cannula into the duodenum from outside the stomach.
In case of intravenous administration, the drug was evaluated by the dissappearance time of bladder contractions caused by micturition reflex.
In case of intraduodenal administration, the sum total of amplitude of bladder contractions caused by the micturition reflex was calculated during each five minutes at 5 min. before and 15, 30, 45, and 60 min. after the administration.
Then, the maximum inhibition rate was determined from one of the above judgment times compared with that of before the administration, and the dose which inhibited 50 percent of the sum total of amplitude of bladder contractions during five minutes (ED 50 value), was calculated from the graph.

For data set [2], the system named is cystometrogram (time to micturition). Briefly: Effects on the cystometrogram (Dog). The conditions noted are these: i.v., dogs, mean ± S.E., saline 6.0 ± 13.8. The format is in vivo, Mongrel adult dogs. The protocol: as §1
Mongrel adult dogs weighing about 10 kg were anesthetized with thiopental (20 mg/kg, i.v.) and immobilized with gallamine (2 mg/kg, i.v.), and fixed on their back.
In the experiment, infusion of pentobarbital (3 mg/kg/hr, i.v.) and gallamine (3 mg/kg i.v.) were continuted, and artifical respiration was performed (20 times/min, 20 ml air/kg).
After midline incision of the abdomen, the ureters were ligated and polyethylene tubes were inserted into the kidney side and the urinary bladder side. Urine was led out of the body from the kidney side, and warm saline was infused using a continuous infusion pump from the urinary bladder side.
Then, a catheter was inserted into the bladder dome and connected to a pressure transducer. Intravesical pressure was recorded on a recorder.
The infusion rate of saline was changed (6-35 ml/min) so as to induce the time to micturition from the saline infusion (time to micturition) at about five minutes.
The drug was administered (through a cannula inserted into the right femoral vein) at the second minute before the last time to micturition, and the delayed time of micturition was evaluated.

Data set [3] shares this test system. The data set is described as follows: Effects on the cystometrogram (Cat). The note with it: cats. The format is in vivo, Mongrel adult cats. The protocol:
as §1
Mongrel adult cats weighing about 3 kg (in case of intraduodenal administration, fasted 24 hours) were anesthetized with urethane (500 mg/kg, i.p.) and alpha-chloralose (50 mg/kg, i.p.) and fixed on their back.
After midline incision of the abdomen, the ureters were ligated and polyethylene tubes were inserted into the kidney side and urinary bladder side, urine was led out of the body from the kidney side, and warm saline was infused using a continuous infusion pump from the urinary bladder side.
Then, a catheter was inserted into the bladder dome and connected to a pressure transducer Intravesical pressure was recorded on a recorder.
The infusion rate of saline was changed (0.7-6.6 ml/min) so as to induce the time to micturition from saline infusion at about five minutes.
Each of delayed time of micturition was evaluated. In case of intravenous administration, the drug was administered through a cannula inserted into the right femoral vein at 30 seconds before saline infusion.
In case of intraduodenal administration, the drug was administrated through a tube inserted into the duodenum by way of mouth at the time of saline infusion, and the time to micturition was measured at 15 min. intervals until 90 min.

The nature of a further data set: in vivo. The note with it: mouse, oral, mortality for one week, Probit method. The procedure: Five to ten male ddY mice aged 4-5 weeks were used for each determination.
The test drug (5-8 dose levels) was orally administrated, and the LD50 value was calculated by Probit method from the mortality for one week after administration.

Counter-ions that a name gives are not always drawn.

`CC(CN1CCCCCC1)C(=O)c1ccc(F)cc1` (stereo not shown) [Compound 9]: the “Disappearance time (of bladder contractions)” value (shortened to “Disappearance time”) in data set [1] (1 mg/kg) amounted to 0.5 ± 0.1 min; in data set [1] (2 mg/kg), 1.2 ± 0.8 min; in data set [1] (4 mg/kg), 5.5 ± 2.7 min. Further, in data set [1] (Rattus norvegicus), the ED (3 min disappearance of contractions) came to 2.7 mg/kg.

Regarding `CC(CN1CCOCC1)C(=O)c1cccc(F)c1` (stereo not shown) [Compound 7], the “Disappearance time” value in data set [1] (2 mg/kg) is reported as 1.8 ± 1.0 min; in data set [1] (8 mg/kg) it was 6.8 ± 2.1 min. In addition, the ED (3 min disappearance of contractions) in data set [1] (Rattus norvegicus) came to 2.8 mg/kg.

A word on the ED50: it is the dose that gives a 50% effect, or the effect in half of the subjects. By LD50 is commonly meant the dose at which mortality reaches 50%. A lower LD50 goes with greater toxicity. For the compound `Cc1c(-c2ccccc2)oc2c(C(=O)OCCN3CCCCC3)cccc2c1=O` [flavoxate-HCl, reference compound], the “Disappearance time” value is recorded as 1.1 ± 1.1 min in data set [1] (1 mg/kg) and 7.5 ± 2.7 min in data set [1] (3 mg/kg). Moreover, in data set [1] (Rattus norvegicus), the ED (3 min disappearance of contractions) turned out to be 1.4 mg/kg. Also, the ED50 in data set [1] (Rattus norvegicus, intraduodenal administration, read-out: ED50 (dose which inhibited 50 percent of the sum total of amplitude of bladder contractions during five minutes)) stood at 270 mg/kg. For the same compound, the “Delayed time of micturition” value in data set [2] (1 mg/kg) came to 0.6 ± 35.4 s; in data set [2] (3 mg/kg, * p < 0.05 vs last time to micturition), 30.6 ± 44.4 s. Moreover, the “Delayed time to micturition” value in data set [3] (1 mg/kg, i.v., mean ± S.E., saline 6.6 ± 10.2) was 12.0 ± 10.8 s; in data set [3] (4 mg/kg, i.v., mean ± S.E., saline 6.6 ± 10.2), 39.0 ± 43.8 s; in data set [3] (8 mg/kg, i.v., mean ± S.E., saline 6.6 ± 10.2), -16.8 ± 36.6 s; in data set [3] (30.0 mg/kg, i.d., after 30 min., water 22.2 ± 16.2) it was -45.6 ± 37.8 s. In addition, the “delayed effect on the cystometrogram (in words)” value in data set [3] (intravenous and intraduodenal) is “not recognized to produce delayed effects”. This compound had an LD50 at 168 h in the data set “in vivo” of 1330 mg/kg.

On to `CCc1ccc(C(=O)C(C)CN2CCCCC2)cc1` (stereo not shown) [Compound 3], for which the “Disappearance time” value in data set [1] (1 mg/kg) is listed as 0.4 ± 0.4 min; in data set [1] (2 mg/kg), 5.3 ± 2.6 min; in data set [1] (4 mg/kg), 12.0 ± 1.2 min. Also, the ED (3 min disappearance of contractions) in data set [1] (Rattus norvegicus) turned out to be 1.4 mg/kg.

As for `CN1CCCC1CCC(=O)c1ccc(Cl)cc1` (stereo not shown) [Compound 6], the “Disappearance time” value in data set [1] (2 mg/kg) is given as 1.1 ± 0.3 min; in data set [1] (4 mg/kg) it was 1.9 ± 0.3 min; in data set [1] (8 mg/kg) it was 3.0 ± 0.3 min. The ED (3 min disappearance of contractions) in data set [1] (Rattus norvegicus) worked out at 8 mg/kg.

With `Cc1ccc(C(=O)C(C)CN2CCCCC2)cc1` (stereo not shown) [Compound 4], the “Disappearance time” value in data set [1] (1 mg/kg) was 1.0 ± 0.7 min; in data set [1] (2 mg/kg), 2.3 ± 0.5 min; in data set [1] (4 mg/kg), 4.9 ± 1.9 min. In addition, in data set [1] (Rattus norvegicus), the ED (3 min disappearance of contractions) is 2.4 mg/kg. Further, in the data set “in vivo”, the 50% lethal dose (LD50) at 168 h was found to be 450 mg/kg.

As to `CC(CN1CCCC1)C(=O)c1ccc(CF)cc1` (stereo not shown) [Compound 8], the figures for the “Disappearance time” value in data set [1] (2 mg/kg), in data set [1] (4 mg/kg) and in data set [1] (8 mg/kg) were 1.5 ± 4.79 min, 2.4 ± 2.0 min and 5.2 ± 2.5 min, respectively.

Take `CC(CN1CCCC1)C(=O)c1ccc(C2CCCCC2)cc1` (stereo not shown) [Compound 2]: the “Disappearance time” value in data set [1] (1 mg/kg) was determined as 1.0 ± 1.0 min; in data set [1] (2 mg/kg), 2.5 ± 1.3 min; in data set [1] (4 mg/kg), 6.3 ± 0.8 min. The ED (3 min disappearance of contractions) in data set [1] (Rattus norvegicus) came out at 2.2 mg/kg. The same compound came in with a 50% lethal dose (LD50) at 168 h in the data set “in vivo” of 587 mg/kg.

As to `COc1ccc(C(=O)C(C)CN2CCCC2)c(C)c1C` (stereo not shown) [Compound 5], the “Disappearance time” value in data set [1] (0.25 mg/kg) worked out at 3.0 ± 0.4 min; in data set [1] (1 mg/kg), 6.3 ± 1.4 min. The ED (3 min disappearance of contractions) in data set [1] (Rattus norvegicus) was found to be 0.25 mg/kg.
